Consider eight compounds from ChEMBL document CHEMBL1201862, “PubChem BioAssay data set” (2004).

Test in all cases: inhibition of tumour cell growth, NCI panel, 48 h
In assay [1] the test system is SW-620.
Assay [2] concerns LOX IMVI.
For assay [3], the system named is RXF 393.
The subject of assay [4] is SNB-19.
Assay [5] concerns OVCAR-3.
For assay [6], the system named is HCT-116.
In assay [7] the test system is NCI/ADR-RES.
In assay [8] the test system is UACC-62.
Assay [9] deals with A549.
The subject of assay [10] is SF-539.
Assay [11] relates to SNB-75.
Assay [12] deals with OVCAR-5.
Assay [13] relates to M14.
The test system of assay [14] is NCI-H522.
Assay [15] deals with COLO 205.
The subject of assay [16] is NCI-H460.
In assay [17] the test system is SK-MEL-28.
For assay [18], the system named is ACHN.
The subject of assay [19] is SK-OV-3.
The test system of assay [20] is HCT-15.

Molecules are shown by their SMILES.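 Cells were grown in 96-well plates and exposed to each compound for 48 hours at five concentrations; endpoints were interpolated linearly between bracketing concentrations, or set to the highest concentration if not reached. GI50 = concentration required for 50% inhibition of growth.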 Active and inactive are the calls of the source. No stated cut-off is given here; in the data, active = GI50 up to about 1.1 µM and inactive = higher. Bounds are passed on as bounds.

For `Cc1cc(C)c(S(=O)(=O)N(CCCCN)OCCCN)c(C)c1`, the GI50 in [1] is 17.9 µM (inactive); in assay [2], 15.2 µM (inactive); in assay [3] it was 15.2 µM (inactive); in assay [4], 19.6 µM (inactive); in assay [5], 18.4 µM (inactive); in assay [6] it was 16.7 µM (inactive). Besides, the GI50 in assay [7] is 20.7 µM (inactive); in assay [8], 16.4 µM (inactive); in assay [9], 19.3 µM (inactive); in [10], 21.8 µM (inactive); in [11], 13.5 µM (inactive); in assay [12], 19.5 µM (inactive). For the same compound, the GI50 in assay [13] is 18.7 µM (inactive); in assay [14], 16.2 µM (inactive); in assay [15], 9.04 µM (inactive); in assay [16] it was 19 µM (inactive); in [17] it was 18.3 µM (inactive); in assay [18], 22.5 µM (inactive). Also, the GI50 in assay [19] was 16.8 µM (inactive).
With `c1ccc(C(NC2=NCCO2)C2CC2)cc1` (stereo not drawn), the GI50 is > 100 µM (inactive) in assay [1]; > 100 µM (inactive) in [2]; > 100 µM (inactive) in assay [3]; 88.9 µM (inactive) in [4]; > 100 µM (inactive) in assay [5]; 82.8 µM (inactive) in assay [6]. Further, the GI50 is > 100 µM (inactive) in [7]; > 100 µM (inactive) in assay [8]; > 100 µM (inactive) in [9]; 32.3 µM (inactive) in [10]; > 100 µM (inactive) in [11]; greater than 100 µM in assay [20]. Moreover, the GI50 in assay [12] is > 100 µM (inactive); in assay [13], > 100 µM (inactive); in [14], > 100 µM (inactive); in assay [15], > 100 µM (inactive); in assay [16], 75.2 µM (inactive); in assay [17] it was > 100 µM (inactive). The GI50 in [18] and in assay [19] was > 100 µM (inactive) each time.
For the compound `CC1C(=O)C(C)C(c2cccs2)N(N=O)C1c1cccs1` (stereo not drawn), the GI50 is > 100 µM (inactive) in [1]; > 100 µM (inactive) in assay [2]; > 100 µM (inactive) in assay [3]; > 100 µM (inactive) in assay [4]; 9.27 µM (inactive) in assay [5]; > 100 µM (inactive) in assay [6]. Moreover, the GI50 was > 100 µM (inactive) in assay [7]; > 100 µM (inactive) in assay [8]; > 100 µM (inactive) in assay [9]; > 100 µM (inactive) in [10]; 28.1 µM (inactive) in assay [11]; greater than 100 µM in assay [20]. Further, the GI50 is > 100 µM (inactive) in assay [12]; 37.7 µM (inactive) in assay [14]; > 100 µM (inactive) in [15]; > 100 µM (inactive) in assay [16]; > 100 µM (inactive) in assay [17]; > 56 µM (inactive) in assay [19].
Turning to `COC(=O)[C@@H]1O[C@]12[C@@H](CO[Si](C)(C)C(C)(C)C)O[C@@H](n1cc(C)c(=O)[nH]c1=O)[C@@H]2O[Si](C)(C)C(C)(C)C`, the GI50 was 11.5 µM (inactive) in assay [1]; 3.38 µM (inactive) in assay [2]; 7.35 µM (inactive) in assay [3]; 10.3 µM (inactive) in assay [4]; 14.6 µM (inactive) in assay [5]; 15.2 µM (inactive) in assay [6]. The GI50 in assay [7] was 13.6 µM (inactive); in assay [8], 17.9 µM (inactive); in [9], 25.5 µM (inactive); in assay [10], 21.3 µM (inactive); in [11] it was 23.1 µM (inactive); in assay [20], 4.35 µM. Also, the GI50 was 20.4 µM (inactive) in [12]; 19.5 µM (inactive) in assay [13]; 11.9 µM (inactive) in assay [14]; 28.4 µM (inactive) in assay [15]; 11.6 µM (inactive) in assay [16]; 19.8 µM (inactive) in [17]. For the same compound, the GI50 is 16.6 µM (inactive) in assay [18] and 32.6 µM (inactive) in assay [19].
With `O=C(O)c1cnc2c(ccc3ncc(C(=O)O)c(O)c32)c1O`, the GI50 in assay [1], in assay [2], in [3], in [4], in assay [5] and in assay [6] was > 100 µM (inactive) in each case. Besides, the GI50 in [7] was > 100 µM (inactive); in assay [8], > 100 µM (inactive); in assay [9], > 100 µM (inactive); in assay [10], > 100 µM (inactive); in assay [11] it was 34.8 µM (inactive); in assay [20], greater than 100 µM. In addition, the GI50 in [12], in assay [13], in assay [14], in assay [15], in [16] and in [17] was > 100 µM (inactive) each time. The GI50 in [18] and in assay [19] was > 100 µM (inactive) in each case.
With `O=[N+]([O-])c1cccc2nc3ccccc3c(NCCNCCO)c12`, the GI50 in [1] is 0.00899 µM (active); in [2], 0.00413 µM (active); in assay [3] it was 0.00513 µM (active); in assay [4] it was 0.0349 µM (active); in [5] it was 0.00558 µM (active); in assay [6], 0.0197 µM (active). Further, the GI50 in assay [7] was 0.248 µM (active); in [8], 0.01 µM (active); in assay [9] it was 0.00337 µM (active); in [10], 0.0326 µM (active); in assay [11], 0.0188 µM (active); in [20], 0.0405 µM. The GI50 in assay [12] was 0.0109 µM (active); in assay [13], 0.011 µM (active); in assay [14], 0.00109 µM (active); in assay [15], 0.00176 µM (active); in assay [16] it was 0.00184 µM (active); in assay [17], 0.047 µM (active). Further, the GI50 in [18] was 0.00875 µM (active); in assay [19], 0.0374 µM (active).
Take `CC(NC(=O)C(C)NC(=O)C(N)CCP(C)(=O)O)C(=O)O` (stereo not drawn): the GI50 in assay [1], in assay [2], in assay [3], in assay [4], in assay [5] and in assay [6] was > 100 µM (inactive) in each case. Moreover, the GI50 is > 100 µM (inactive) in assay [7]; > 100 µM (inactive) in assay [8]; > 100 µM (inactive) in assay [9]; > 100 µM (inactive) in [10]; > 100 µM (inactive) in assay [11]; greater than 100 µM in assay [20]. For the same compound, the GI50 in [12], in assay [14], in assay [15], in assay [16], in [17] and in assay [19] was > 100 µM (inactive) each time.
In the case of `COc1ccccc1Cc1nc(-c2ccccc2)nn(C2OC(COC(C)=O)C(OC(C)=O)C(OC(C)=O)C2OC(C)=O)c1=S` (stereo not drawn), the GI50 in assay [1] is > 72.8 µM (inactive); in [2] it was 11.2 µM (inactive); in assay [3], 3.13 µM (inactive); in [4], 5.75 µM (inactive); in [5] it was 21.6 µM (inactive); in assay [6], 10.1 µM (inactive). The GI50 in assay [7] was 9.1 µM (inactive); in [8] it was 14.5 µM (inactive); in [9], 16.4 µM (inactive); in assay [10] it was 9.14 µM (inactive); in [11], 3.08 µM (inactive); in assay [20], 21.5 µM. For the same compound, the GI50 in assay [12] is > 100 µM (inactive); in assay [14], 6.5 µM (inactive); in [15], > 40.4 µM (inactive); in assay [16], > 43.9 µM (inactive); in assay [17], 49.2 µM (inactive); in [19] it was 36.7 µM (inactive).
